# pIC50: −log10 of the molar value.
# Target: T1, Human KDR (Homo sapiens, UniProt P35968)
# T1 construct: expressed in transfected cells; host or cells: NIH3T3 cells (mouse fibroblasts)
# Experiment: Inhibition of KDR phosphorylation in human KDR-transfected NIH3T3 cells (ELISA)
# Format: cell-based
# Details: for Selection ratio (KDR phosphorylation IC50 / c-fms phosphorylation IC50): class 0-3; for pIC50: human KDR-transfected NIH3T3 cells, VEGF 100 ng/ml, ELISA, read-out: KDR phosphorylation 50% inhibitory concentration (IC50)
# Method: Human KDR-transfected NIH3T3 cells (Sawano A et al., Cell Growth & Differentiation, 7, 213-221 (1996)) were cultured in a DMEM medium containing 10% fetal calf serum (purchased from GIBCO BRL) within a 5% carbon dioxide incubator until 50 to 70% confluent. The harvested cells were seeded into wells, containing the same medium, in a collagen type 1 coat 96-well flat-bottom plate in an amount of 1.5×10^4 per well, and cultured at 37° C. overnight. The medium was replaced with a 0.1% fetal calf serum-containing DMEM medium. The test compound dissolved in dimethyl sulfoxide was added to each well, and the cultivation was continued at 37° C. for additional one hr. A human recombinant vascular endothelial growth factor (hereinafter abbreviated to “VEGF”) was added to a final concentration of 100 ng/ml, followed by stimulation of cells at 37° C. for 2 min. The medium was removed, and the cells were washed with phosphate buffered saline (pH 7.4). A solubilization buffer (50 μl) (20 mM HEPES (pH 7.4), 150 mM NaCl, 0.2% Triton X-100, 10% glycerol, 5 mM sodium orthovanadylate, 5 mM disodium ethylenediaminetetraacetate, and 2 mM Na4P2O7) was then added thereto. The mixture was shaken at 4° C. for 2 hr to prepare a cell extract.
# Separately, phosphate buffered saline (50 μl, pH 7.4) containing 5 μg/ml of anti-phospho-tyrosine antibody (PY20; purchased from Transduction Laboratories) was added to a microplate for ELISA (Maxisorp; purchased from NUNC), followed by standing at 4° C. overnight to be immobilized on the wells. After washing of the plate, 300 μl of a blocking solution was added, followed by standing at room temperature for 2 hr to perform blocking. After washing, the whole cell extract was transferred and was allowed to stand at 4° C. overnight. After washing, an anti-KDR antibody (purchased from Santa Cruz Biotechnology) was allowed to react at room temperature for one hr. Further, after washing, a peroxidase-labeled anti-rabbit Ig antibody (purchased from Amersham) was allowed to react at room temperature for one hr. After washing, a chromophoric substrate for peroxidase (purchased from Sumitomo Bakelite Co., Ltd.) was added thereto to initiate a reaction. After a suitable level of color development, a reaction termination solution was added to stop the reaction, and the absorbance at 450 nm was measured with a microplate reader. The KDR phosphorylation activity for each well was determined by presuming the absorbance without the addition of the test compound and with the addition of VEGF to be 100% KDR phosphorylation activity and the absorbance without the addition of the test compound and VEGF to be 0% KDR phosphorylation activity. The concentration of the test compound was varied on several levels, the KDR phosphorylation inhibitory rate was determined for each case, and the concentration of the test compound necessary for inhibiting 50% of KDR phosphorylation (IC50) was calculated.
# T1 sequence (P35968 20-1356): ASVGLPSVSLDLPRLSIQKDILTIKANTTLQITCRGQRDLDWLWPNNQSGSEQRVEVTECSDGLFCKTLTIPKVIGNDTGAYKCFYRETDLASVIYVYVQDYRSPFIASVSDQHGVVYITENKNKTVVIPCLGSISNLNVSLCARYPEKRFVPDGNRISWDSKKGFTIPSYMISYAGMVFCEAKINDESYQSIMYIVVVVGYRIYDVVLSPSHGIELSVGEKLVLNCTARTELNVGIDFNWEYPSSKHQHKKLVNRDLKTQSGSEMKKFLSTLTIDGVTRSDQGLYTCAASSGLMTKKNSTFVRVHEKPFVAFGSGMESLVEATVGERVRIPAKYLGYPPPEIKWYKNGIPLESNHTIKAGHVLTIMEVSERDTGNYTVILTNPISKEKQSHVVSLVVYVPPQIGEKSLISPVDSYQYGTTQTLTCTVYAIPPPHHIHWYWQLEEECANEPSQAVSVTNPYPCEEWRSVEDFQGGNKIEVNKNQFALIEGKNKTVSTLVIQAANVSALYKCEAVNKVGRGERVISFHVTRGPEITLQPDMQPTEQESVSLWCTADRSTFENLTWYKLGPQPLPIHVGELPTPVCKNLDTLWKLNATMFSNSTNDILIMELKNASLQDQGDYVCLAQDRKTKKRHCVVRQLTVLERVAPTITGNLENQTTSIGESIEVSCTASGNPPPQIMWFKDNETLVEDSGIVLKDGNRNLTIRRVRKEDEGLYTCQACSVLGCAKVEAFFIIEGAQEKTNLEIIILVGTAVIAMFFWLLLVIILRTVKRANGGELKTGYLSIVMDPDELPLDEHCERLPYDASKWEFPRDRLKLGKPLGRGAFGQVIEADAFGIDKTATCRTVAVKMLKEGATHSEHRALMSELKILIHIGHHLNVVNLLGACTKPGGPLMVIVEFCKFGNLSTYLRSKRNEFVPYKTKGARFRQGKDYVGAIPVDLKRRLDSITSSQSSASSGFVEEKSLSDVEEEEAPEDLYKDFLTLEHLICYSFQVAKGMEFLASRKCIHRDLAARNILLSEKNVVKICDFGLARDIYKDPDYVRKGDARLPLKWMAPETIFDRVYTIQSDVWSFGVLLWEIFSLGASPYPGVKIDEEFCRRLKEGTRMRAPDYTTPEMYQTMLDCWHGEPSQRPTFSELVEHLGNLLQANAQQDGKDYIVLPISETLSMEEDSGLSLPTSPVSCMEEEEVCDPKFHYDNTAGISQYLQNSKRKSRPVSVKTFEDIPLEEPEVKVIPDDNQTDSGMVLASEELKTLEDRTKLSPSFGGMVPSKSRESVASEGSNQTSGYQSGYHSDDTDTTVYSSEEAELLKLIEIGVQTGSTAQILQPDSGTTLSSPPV
Structure (SMILES),Selection ratio (KDR phosphorylation IC50 / c-fms phosphorylation IC50),pIC50,selective inhibition of c-fms rather than KDR (in words) (in vitro)
"COc1cc2nccc(Oc3ccc(NC(=O)N[C@H](C)c4cccc(Br)c4)cc3Cl)c2cc1OC [Example 57, N-[(1R)-1-(3-Bromophenyl)ethyl]-N′-{3-chloro-4-[(6,7-dimethoxy-4-quinolyl)oxy]phenyl}urea]",0 (KDR phosphorylation 50% inhibitory concentration [μM]/c-fms phosphorylation 50% inhibitory concentration [μM] was less than 5),8.44,
"COc1cc2c(Oc3ccc(NC(=O)NC(C)c4ccc(F)cc4F)cc3F)ccnc2cc1OCCCN1CCOCC1 (centres unmarked) [Example 66, N-[1-(2,4-Difluorophenyl)ethyl]-N′-(3-fluoro-4-{[6-methoxy-7-(3-morpholinopropoxy)-4-quinolyl]oxy}phenyl)urea]",0 (KDR phosphorylation 50% inhibitory concentration [μM]/c-fms phosphorylation 50% inhibitory concentration [μM] was less than 5),7.78,
"COc1cc2nccc(Oc3ccc(NC(=O)NC(C)c4ccc(F)cc4)cc3OC)c2cc1OC (centres unmarked) [Example 22, N-{4-[(6,7-Dimethoxy-4-quinolyl)oxy]-3-methoxyphenyl}-N′-[1-(4-fluorophenyl)ethyl]urea]",0 (KDR phosphorylation 50% inhibitory concentration [μM]/c-fms phosphorylation 50% inhibitory concentration [μM] was less than 5),8.41,
"COc1cc2c(Oc3ccc(NC(=O)NC(C)c4ccc(F)cc4F)c(F)c3)ccnc2cc1OCCCN1CCOCC1 (centres unmarked) [Example 69, N-[1-(2,4-Difluorophenyl)ethyl]-N′-(2-fluoro-4-{[6-methoxy-7-(3-morpholinopropoxy)-4-quinolyl]oxy}phenyl)urea]",0 (KDR phosphorylation 50% inhibitory concentration [μM]/c-fms phosphorylation 50% inhibitory concentration [μM] was less than 5),8.28,
"COc1cc2nccc(Oc3cc(C)c(NC(=O)N[C@@H](C)c4nccs4)cc3C)c2cc1OC [Example 86, N-{4-[(6,7-Dimethoxy-4-quinolyl)oxy]-2,5-dimethylphenyl}-N′-[(1S)-1-(1,3-thiazol-2-yl)ethyl]urea]",2 (when the value was 10 or more),6.68,
"COc1cc2nccc(Oc3ccc(NC(=O)N[C@@H](C)c4ccc(F)cc4)c(F)c3)c2cc1OC [Example 29, N-{4-[(6,7-Dimethoxy-4-quinolyl)oxy]-2-fluorophenyl}-N′-[(1S)-1-(4-fluorophenyl)ethyl]urea]",2 (when the value was 10 or more),7.56,
"COc1cc2nccc(Oc3ccc(NC(=O)N[C@@H](C)c4ccc(F)cc4)c(C)c3)c2cc1OC [Example 14, N-{4-[(6,7-Dimethoxy-4-quinolyl)oxy]-2-methylphenyl}-N′-[(1S)-1-(4-fluorophenyl)ethyl]urea]",1 (when the value was 5 or more),7.16,
"COc1cc(Oc2ccnc3cc(OC)c(OC)cc23)ccc1NC(=O)NC(C)c1ncc(C)s1 (centres unmarked) [Example 105, N-{4-[(6,7-Dimethoxy-4-quinolyl)oxy]-2-methoxyphenyl}-N′-[1-(5-methyl-1,3-thiazol-2-yl)ethyl]urea]",2 (when the value was 10 or more),6.51,
"COc1cc2nccc(Oc3ccc(NC(=O)N[C@@H](C)c4nccs4)c(C(F)(F)F)c3)c2cc1OC [Example 84, N-[4-[(6,7-Dimethoxy-4-quinolyl)oxy]-2-(trifluoromethyl)phenyl]-N′-[(1S)-1-(1,3-thiazol-2-yl)ethyl]urea]",3 (when the value was 50 or more),6.18,
"COc1cc2nccc(Oc3cc(C)c(NC(=O)N[C@@H](C)c4ccc(F)cc4)cc3C)c2cc1OC [Example 8, N-{4-[(6,7-Dimethoxy-4-quinolyl)oxy]-2,5-dimethylphenyl}-N′-[(1S)-1-(4-fluorophenyl)ethyl]urea]",2 (when the value was 10 or more),6.41,
"COc1cc2nccc(Oc3cc(C)c(NC(=O)N[C@H](C)c4nccs4)cc3C)c2cc1OC [Example 87, N-{4-[(6,7-Dimethoxy-4-quinolyl)oxy]-2,5-dimethylphenyl}-N′-[(1R)-1-(1,3-thiazol-2-yl)ethyl]urea]",2 (when the value was 10 or more),6.56,
"COc1cc2nccc(Oc3ccc(NC(=O)N[C@H](C)c4ccc(F)cc4)cc3Cl)c2cc1OC [Example 12, N-{3-Chloro-4-[(6,7-dimethoxy-4-quinolyl)oxy]phenyl}-N′-[(1R)-1-(4-fluorophenyl)ethyl]urea]",0 (KDR phosphorylation 50% inhibitory concentration [μM]/c-fms phosphorylation 50% inhibitory concentration [μM] was less than 5),8.55,
"COc1cc(Oc2ccnc3cc(OC)c(OC)cc23)ccc1NC(=O)N[C@@H](C)c1ccc(F)cc1 [Example 17, N-{4-[(6,7-Dimethoxy-4-quinolyl)oxy]-2-methoxyphenyl}-N′-[(1S)-1-(4-fluorophenyl)ethyl]urea]",3 (when the value was 50 or more),6.50,selectively inhibit c-fms rather than KDR
"COc1cc2nccc(Oc3ccc(NC(=O)N[C@H](C)c4nccs4)c(F)c3)c2cc1OC [Example 72, N-{4-[(6,7-Dimethoxy-4-quinolyl)oxy]-2-fluorophenyl}-N′-[(1R)-1-(1,3-thiazol-2-yl)ethyl]urea]",1 (when the value was 5 or more),7.45,
"COc1cc2nccc(Oc3ccc(NC(=O)N[C@H](C)c4ccccc4OC)cc3)c2cc1OC [Example 52, N-{4-[(6,7-Dimethoxy-4-quinolyl)oxy]phenyl}-N′-[(1R)-1-(2-methoxyphenyl)ethyl]urea]",0 (KDR phosphorylation 50% inhibitory concentration [μM]/c-fms phosphorylation 50% inhibitory concentration [μM] was less than 5),8.14,
"COc1cc2nccc(Oc3ccc(NC(=O)N[C@H](C)c4ccc(F)cc4)cc3F)c2cc1OC [Example 33, N-{4-[(6,7-Dimethoxy-4-quinolyl)oxy]-3-fluorophenyl}-N′-[(1R)-1-(4-fluorophenyl)ethyl]urea]",0 (KDR phosphorylation 50% inhibitory concentration [μM]/c-fms phosphorylation 50% inhibitory concentration [μM] was less than 5),> 9.00,
"COc1cc2c(Oc3ccc(NC(=O)NC(C)c4ccc(F)cc4)c(F)c3)ccnc2cc1OCCCN1CCOCC1 (centres unmarked) [Example 67, N-(2-Fluoro-4-{[6-methoxy-7-(3-morpholinopropoxy)-4-quinolyl]oxy}phenyl)-N′-[1-(4-fluorophenyl)ethyl]urea]",0 (KDR phosphorylation 50% inhibitory concentration [μM]/c-fms phosphorylation 50% inhibitory concentration [μM] was less than 5),8.54,
"COc1cc2nccc(Oc3ccc(NC(=O)NC(C)c4nccs4)cc3OC)c2cc1OC (centres unmarked) [Example 80, N-{4-[(6,7-Dimethoxy-4-quinolyl)oxy]-3-methoxyphenyl}-N′-[1-(1,3-thiazol-2-yl)ethyl]urea]",3 (when the value was 50 or more),6.28,
"COc1cc2nccc(Oc3ccc(NC(=O)N[C@H](C)c4cccc(Br)c4)c(C)c3C)c2cc1OC [Example 62, N-[(1R)-1-(3-Bromophenyl)ethyl]-N′-{4-[(6,7-dimethoxy-4-quinolyl)oxy]-2,3-dimethylphenyl}urea]",0 (KDR phosphorylation 50% inhibitory concentration [μM]/c-fms phosphorylation 50% inhibitory concentration [μM] was less than 5),8.57,
"COc1cc(Oc2ccnc3cc(OC)c(OC)cc23)ccc1NC(=O)NC(C)c1ccc(F)cc1 (centres unmarked) [Example 16, N-{4-[(6,7-Dimethoxy-4-quinolyl)oxy]-2-methoxyphenyl}-N′-[1-(4-fluorophenyl)ethyl]urea]",0 (KDR phosphorylation 50% inhibitory concentration [μM]/c-fms phosphorylation 50% inhibitory concentration [μM] was less than 5),8.51,

# Source: patent US7598258B2, “Quinoline derivatives and quinazoline derivatives inhibiting autophosphorylation of macrophage colony stimulating factor receptor” (Kirin Beer Kabushiki Kaisha, priority 2002, dated 2009)
